Source: patent US20070110901A1, “Method for identifying weakly binding molecule fragments having ligand properties, whereby the molecule fragments are applied in the form of microdrops of a corresponding solution to the crystal” (Proteros Biostructures GMBH, priority 2003, published 2007)

Experiments:
[1] = tested on: DPIV (dipeptidyl peptidase IV); test: X-ray crystallography of DPIV crystal treated with inhibitor (FIG. 5); assay type: binding; settings: active center of DPIV around Ser630; 2F0-F0 density outlined at 1σ
Text: Oxygen atoms are depicted in red, nitrogen atoms in blue, and carbon atoms in gray. Additionally, the inhibitor as well as Ser630, which is covalently coupled to the inhibitor, is overlaid by its 2F0-F0 electron density (outlined at 1σ). The inhibitor is clearly defined concerning its electron density (FIG. 5).
From the used tripeptide having the sequence Ile-Pro-Ile, the C-terminal isoleucine is cleaved off while the dipeptide remains covalently linked with Ser630 and is not cleaved off.
The target enzyme was DPIV (dipeptidyl peptidase IV). Different fragments were solved in a cocktail together. In a cocktail (i), molecules of two different molecule species were combined, i.e. a mimetic (altered peptide backbone (vinyl derivative) of the N-terminal dipeptide of a substrate of the DPIV (having a free N-terminus) and, on the other hand, a mimetic (also a dipeptide with acetylated, blocked N-terminus, also. as. framework mimetic—vinyl derivative). In a second cocktail (ii), five different molecule species (which differed concerning both side chains of the two dipeptide mimetics) from each of the two mimetic classes, i.e. 10 molecule species altogether, were combined in a cocktail.

thrombin = test: X-ray crystallography of freely mounted crystal after dripping on picoliter drops (FIG. 4); assay type: binding; settings: active center of thrombin around Ser195; 2F0-F0 density outlined at 1σ
Text: FIG. 4: The covalently bound inhibitor as well as individual amino acids in the environment of the active center of the thrombin around Ser195 are depicted in the form of a stick model. Oxygen atoms are depicted in red, sulfur atoms in yellow, nitrogen atoms in blue, and carbon atoms in gray. Additionally, the inhibitor is overlaid by its 2F0-F0 electron density (outlined at 1σ). The inhibitor is clearly defined concerning its electron density.
Thereby, evidence has been offered that the approach of dripping picoliter drops onto a protein crystal by use of the free mounting system works.

Compound | binding mode seen in electron density [1] | binding seen in experimentally determined electron density (thrombin)
diprotin A | rather acts as a suicide substrate than as an inhibitor | 
O=S(=O)(F)Cc1ccccc1 [PMSF, phenylmethylsulfonyl fluoride] |  | covalent bond of the PMSF at Ser195
